# According to patent US20250107544A1, “4-(3-OXO-2-(PENT-2-ENYL)CYCLOPENTYL) BUTANOIC ACID MIXTURES AND USES THEREOF” (Valent BioSciences LLC., priority 2023, published 2025):
# Columns and labels:
# [1] = system: unripened apples, Pink Lady variety; experiment: Apple coloration in Pink Lady variety (Example 2), percent red pixel area after foliar spray; assay type: in vivo; details: for Average % Red Pixel Area: 34 hours post spray; for % change from control: vs 0.05% Regulaid control
# Procedure: (§1) To determine if the mixture provided unexpected results, the observed combined efficacy (“OCE”) was divided by the expected combined efficacy (“ECE”) wherein the ECE is calculated by the Abbott method: […]
# (§2) wherein ECE is the expected combined efficacy and in which A and B are the percent change from control given by the single active ingredients. If the ratio between the OCE of the mixture and the ECE of the mixture is greater than 1, then greater than expected interactions are present in the mixture. (Gisi, Synergistic Interaction of Fungicides in Mixtures, The American Phytopathological Society, 86:11, 1273-1279,1996).
# 10 sets of unripened apples, Pink Lady variety, harvested three weeks before the normal harvest date, were each foliar sprayed with either 1) 0.05% Regulaid® as a control, 2) 10 ppm OPC4, 3) 100 ppm OPC4, 4) 100 ppm ACC, 5) 100 ppm jasmonic acid, 6) a mixture of 10 ppm OPC4 and 100 ppm ACC, 7) a mixture of 100 ppm OPC4 and 100 ppm ACC, 8) a mixture of 10 ppm OPC4 and 100 ppm jasmonic acid and 9) a mixture of 100 ppm OPC4 and 100 ppm jasmonic acid. 34 hours post spray application percent red pixel area (shaded) was measured. Percent red pixel area is an indication of the coloration of the apple fruit.
# [2] = system: unripened apples, Pink Lady variety; experiment: Apple coloration in Pink Lady variety (Example 1), percent red pixel area after foliar spray; assay type: in vivo; details: for Average % Red Pixel Area: 34 hours post spray; for % change from control: vs 0.05% Regulaid control
# Excerpt: 10 sets of unripened apples, Pink Lady variety, harvested three weeks before the normal harvest date, were each foliar sprayed with either 1) 0.05% Regulaid® as a control, 2) 30 ppm OPC4, 3) 100 ppm OPC4, 4) 300 ppm OPC4, 5) 1,000 ppm OPC4, 6) 50 ppm ACC, 7) 50 ppm jasmonic acid, 8) a mixture of 30 ppm OPC4 and 50 ppm ACC, 9) a mixture of 100 ppm OPC4 and 50 ppm ACC, 10) a mixture of 300 ppm OPC4 and 50 ppm ACC, 11) a mixture of 1,000 ppm OPC4 and 50 ppm ACC, 12) a mixture of 30 ppm OPC4 and 50 ppm jasmonic acid, 13) a mixture of 100 ppm OPC4 and 50 ppm jasmonic acid, 14) a mixture of 300 ppm OPC4 and 50 ppm jasmonic acid, 15) a mixture of 1,000 ppm OPC4 and 50 ppm jasmonic acid. 34 hours post spray application percent red pixel area (shaded) was measured. Percent red pixel area is an indication of the coloration of the apple fruit.
# as §1, §2
SMILES,Average % Red Pixel Area ([1]; 10 ppm foliar spray),% change from control ([1]; 10 ppm foliar spray),Average % Red Pixel Area ([1]; 100 ppm foliar spray),% change from control ([1]; 100 ppm foliar spray),Average % Red Pixel Area ([2]; 30 ppm foliar spray),% change from control ([2]; 30 ppm foliar spray),Average % Red Pixel Area ([2]; 100 ppm foliar spray),% change from control ([2]; 100 ppm foliar spray),Average % Red Pixel Area ([2]; 300 ppm foliar spray),% change from control ([2]; 300 ppm foliar spray),Average % Red Pixel Area ([2]; 1000 ppm foliar spray),% change from control ([2]; 1000 ppm foliar spray),Average % Red Pixel Area ([2]; 50 ppm foliar spray),% change from control ([2]; 50 ppm foliar spray)
"CCC=CCC1C(=O)CCC1CCCC(=O)O (centres unmarked) [OPC4, 4-(3-oxo-2-(pent-2-enyl)cyclopentyl) butanoic acid]",18.85%,−0.22%,43.59%,0.80%,13.37%,0.76%,36.02%,3.74%,65.59%,7.63%,54.35%,6.15%,–,–
"CC/C=C\C[C@H]1C(=O)CC[C@@H]1CC(=O)O [JA, jasmonic acid, reference compound]",–,–,49.9%,1.06%,–,–,–,–,–,–,–,–,39.64%,4.22%
"NC1(C(=O)O)CC1 [ACC, 1-amino-1-cyclopropanecarboxylic acid, reference compound]",–,–,19.32%,−0.20%,–,–,–,–,–,–,–,–,9.33%,0.23%
